{"source": "paper PMC7308271", "about": "“Discovery of a new class of orthosteric antagonists with nanomolar potency at extrasynaptic GABAA receptors” (Scientific Reports, 2020)", "key": {"[1]": {"molecular_target": "T1, human α4β1δ receptors in δ-HEK cells (Homo sapiens, UniProt P18505+P48169)", "T1 construct": "expressed in transfected cells; host or cells: δ-HEK (HEK293 Flp-In stably expressing human δ), transiently transfected with α4 and β1 1:1", "T1 sequence (P48169 36-554)": "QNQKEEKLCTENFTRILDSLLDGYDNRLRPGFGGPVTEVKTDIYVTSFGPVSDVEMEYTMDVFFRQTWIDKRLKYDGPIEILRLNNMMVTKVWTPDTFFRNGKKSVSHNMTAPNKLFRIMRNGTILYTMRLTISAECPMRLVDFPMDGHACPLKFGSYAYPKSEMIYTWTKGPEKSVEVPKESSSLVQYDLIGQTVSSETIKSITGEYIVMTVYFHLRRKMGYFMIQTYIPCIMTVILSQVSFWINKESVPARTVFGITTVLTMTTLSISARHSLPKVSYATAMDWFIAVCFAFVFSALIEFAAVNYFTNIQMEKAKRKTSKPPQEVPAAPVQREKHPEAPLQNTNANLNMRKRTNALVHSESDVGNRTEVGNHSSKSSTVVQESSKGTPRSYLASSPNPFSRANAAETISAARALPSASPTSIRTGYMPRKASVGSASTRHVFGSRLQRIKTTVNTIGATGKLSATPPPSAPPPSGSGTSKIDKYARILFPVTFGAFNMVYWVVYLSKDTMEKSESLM", "T1 sequence (P18505 26-474)": "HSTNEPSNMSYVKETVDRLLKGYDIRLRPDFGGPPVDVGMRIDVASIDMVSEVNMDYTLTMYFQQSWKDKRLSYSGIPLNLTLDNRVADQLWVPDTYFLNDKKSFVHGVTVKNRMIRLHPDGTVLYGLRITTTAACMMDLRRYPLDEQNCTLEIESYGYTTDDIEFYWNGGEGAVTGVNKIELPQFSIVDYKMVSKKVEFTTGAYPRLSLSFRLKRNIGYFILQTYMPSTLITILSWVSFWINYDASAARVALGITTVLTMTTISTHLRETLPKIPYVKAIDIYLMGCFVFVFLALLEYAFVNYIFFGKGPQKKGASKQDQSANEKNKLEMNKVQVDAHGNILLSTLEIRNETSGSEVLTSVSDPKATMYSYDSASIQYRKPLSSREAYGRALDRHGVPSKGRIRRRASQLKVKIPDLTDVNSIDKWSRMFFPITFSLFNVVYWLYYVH", "T1 sequence (O14764 25-452 partner)": "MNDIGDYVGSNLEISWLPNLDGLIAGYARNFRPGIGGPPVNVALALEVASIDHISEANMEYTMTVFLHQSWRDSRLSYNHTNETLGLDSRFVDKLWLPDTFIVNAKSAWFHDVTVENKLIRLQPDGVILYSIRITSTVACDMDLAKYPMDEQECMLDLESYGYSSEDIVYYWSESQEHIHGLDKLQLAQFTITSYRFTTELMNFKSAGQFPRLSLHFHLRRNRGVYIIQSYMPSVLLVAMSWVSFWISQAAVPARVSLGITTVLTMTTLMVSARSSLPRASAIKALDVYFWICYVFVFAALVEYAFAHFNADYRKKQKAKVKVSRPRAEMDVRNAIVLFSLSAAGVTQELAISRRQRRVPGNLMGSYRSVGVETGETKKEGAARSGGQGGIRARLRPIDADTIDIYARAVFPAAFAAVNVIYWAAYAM", "test": "Whole-cell patch-clamp electrophysiology, kinetic studies of GABA activation after 018 pre-application", "format": "cell-based", "description": "δ-HEK cells transiently expressing human α4β1δ receptors were seeded in 35 mm Petri dishes the day before experiment and used for recordings in a similar was as previously reported. On the day of experiment the dishes were transferred to the stage of an Axiovert 10 microscope (Zeiss, Germany), and the culture medium was exchanged for artificial balanced salt solution (ABBS) at room temperature (20−24 °C). The ABSS solution contained the following (in mM): NaCl 140, KCl 3.5, Na2HPO4 1.25, MgSO4 2, CaCl2 2, glucose 10, and HEPES 10; pH 7.35. The cells were viewed at 200× magnification, and cells containing green fluorescent protein were visualized with UV light from an HBO 50 lamp (Zeiss, Germany). The cells were approached with micropipettes of 1.2−3.3 MΩ resistance manufactured from 1.5 mm OD glass (World Precision Instruments, Sarasota, Florida) on a microelectrode puller, model PP-830 (Narishige, Tokyo, Japan). The intrapipette solution contained the following (in mM): KCl 140, MgCl2 1, CaCl2 1, EGTA 10, MgATP 2, and HEPES 10; pH 7.3. Standard patch-clamp techniques in voltage clamp mode[44] were used to record from cells in the whole-cell configuration using an EPC-9 amplifier (HEKA, Lambrecht, Germany). A clamping potential of −60 mV was used, and series resistance was 80% compensated. Whole-cell currents were recorded and subsequently analyzed using Pulse and PulseFit software (HEKA, Lambrecht, Germany).\nABSS solution containing the compounds were applied using two VC3–8xP pressurized application systems feeding into a sixteen-barreled perfusion pipette (ALA Scientific Instruments Inc., Farmingdale New York, USA) ending approximately 100 μm from the recorded cell. Between the compound applications, compound-free ABSS was applied from one of the barrels in order to quickly remove the compounds from the cell. […] The cells were left to recover for 1 min before the next application.\nCurrent relaxations were fitted to a single or biexponential equation using a Simplex optimization algorithm (PulseFit; HEKA, Lambrecht, Germany). I(t)=I0+I1exp−t/τ1+I2exp−t/τ2\nWith I denoting the currents at a time t and τ1 and τ2 the time constants. All curve-fitting results were carefully inspected visually. In some cases, the current relaxations were fitted to both a mono- and a biexponential function and an F-test was applied to the residual sum of squares to determine the appropriateness of using a second component: F=(SSA−SSB)dfB/SSB(dfA−dfB)=(RMSA2−RMSB2)dfB/RMSB2(dfA−dfB) where SS and RMS are the sum of squares and root mean square deviation between fit and data, respectively. A and B refer to the single and biexponential fit, respectively. df represents the degree of freedom for each fit. Time constants were given as medians followed by the 25–75% percentile in square brackets."}, "[2]": {"molecular_target": "[^3H]muscimol binding (GABAΑ receptors) in rat brain cortical homogenate", "test": "[3H]muscimol radioligand binding in rat cortical homogenate", "conditions": "for Ki: 5 nM [^3H]muscimol, n = 4; for pKi ± SEM: [^3H]muscimol", "description": "The binding studies were performed using rat brain homogenate prepared from the cortex of adult Sprague-Dawley male rats (250–350 g) obtained from commercial breeders (Janvier Laboratories, Le Genest-Saint-Isle, France), housed and cared for according to the Danish legislation regulating animal experiments and the European Communities Council Directive (2010/63/EU). Homogenate preparation was performed as described earlier. On the day of assay, membranes stored at −20 °C was quickly thawed followed by addition of 40 volumes of ice-cold binding buffer (50 mM TRIS-HCl buffer; pH 7.4) and homogenization using and UltraTurrax homogenizer before being centrifuged at 48,000 ×g for 10 minutes at 4 °C. This washing procedure was repeated 4 times before the final pellet was suspended in the binding buffer to final concentration of approximately 0.5 mg/mL protein.\nThe radioligand binding assay was performed using [^3H]muscimol in a 96-well format. [^3H]muscimol (5 nM) was incubated with 75 μg/well protein with or without test compound or control at 0 °C for 1 hour in a total volume of 200 μL binding buffer in triplicates. […] After incubation, the binding reaction was terminated by rapid filtration through GF/C unifilters (PerkinElmer) with the use of a 96-well Packard FilterMate cell harvester (PerkinElmer), followed by 3 times washing in 250 μL ice-cold binding buffer. After drying at 65 °C, microscintillation fluid was added to the dried filters and the radioactivity bound to the filter was quantified in a Packard TopCounter microplate scintillation counter. The obtained binding data was converted into specific binding (% of control) for each data point and fitted to the one-site competition model by […] (GraphPad Prism, version 8.2.1). The fitted IC50 values were converted into Ki values by means of the Cheng-Prusoff equation[46]. Data are from three independent experiments, performed with three technical replicates and Ki values are given as pKi ± SEM."}, "[3]": {"tested_on": "MDR1 (P-glycoprotein), human", "test": "Bidirectional membrane permeability in MDR1-MDCK cells", "format": "in vitro ADME, canine", "conditions": "dog, triplicate, read-out: basal to apical permeability", "description": "(§1) Bidirectional permeability was tested for 018 and 2027 in the Madin-Darby canine kidney (MDCK) cell line expressing human multidrug resistance protein (MDR1, P-glycoprotein) (referred to as MDR1-MDCK cells) as described previously. To calculate efflux ratio the permeability in the basal-to-apical direction was divided by the permeability in the apical-to-basal direction. The obtained data is from triplicate measurements."}, "[4]": {"tested_on": "MDR1 (P-glycoprotein)", "test": "Bidirectional membrane permeability in MDR1-MDCK cells", "format": "in vitro ADME, canine", "conditions": "dog, both before and after", "description": "as §1"}, "[5]": {"conditions": "100 μM GABA, 3 nM 018, biexponential fit"}, "[6]": {"conditions": "100 μM GABA, 10 nM 018, biexponential fit"}, "[7]": {"conditions": "100 μM GABA, 30 nM 018, biexponential fit"}, "[8]": {"conditions": "[…] GABA, 10 nM 018, biexponential fit"}, "[9]": {"conditions": "[…] GABA, 30 nM 018, biexponential fit, n = 5"}}, "data": [{"smiles": "NCCCC(=O)O", "note": "[GABA]", "values": [{"measurement": "t1 (ms), activation time constant", "setting": "[1]; 100 μM GABA alone (0 nM 018), monoexponential fit, median", "value": 35.0, "unit": "ms"}, {"measurement": "τ (ms), activation time constant", "setting": "[1]; […] GABA alone (0 nM 018), monoexponential fit, median [25–75% quartiles]", "value": "174 [148;186]^a ms"}]}, {"smiles": "O=C(Nc1cccc(C(=O)N2CCC3(CCNCC3)CC2)c1)c1cccs1", "note": "[compound 018, N-(3-(3,9-diazaspiro[5.5]undecane-3-carbonyl)phenyl)thiophene-2-carboxamide]", "values": [{"measurement": "Ki", "setting": "[2]", "value": 20, "unit": "nM"}, {"measurement": "pKi ± SEM", "setting": "[2]", "value": "7.71 ± 0.06"}, {"measurement": "t1", "setting": "[1]; 100 μM GABA, 0.1 nM 018, monoexponential fit", "value": 37.1, "unit": "ms"}, {"measurement": "%A1", "setting": "[1]; 100 μM GABA, 3 nM 018", "value": 81.5, "unit": "%"}, {"measurement": "t1", "setting": "[1]; [5]", "value": 29.6, "unit": "ms"}, {"measurement": "t2", "setting": "[1]; [5]", "value": 1070, "unit": "ms"}, {"measurement": "%A1", "setting": "[1]; 100 μM GABA, 10 nM 018", "value": 33.9, "unit": "%"}, {"measurement": "t1", "setting": "[1]; [6]", "value": 41.4, "unit": "ms"}, {"measurement": "t2", "setting": "[1]; [6]", "value": 2170, "unit": "ms"}, {"measurement": "%A1", "setting": "[1]; 100 μM GABA, 30 nM 018", "value": 7.5, "unit": "%"}, {"measurement": "t1", "setting": "[1]; [7]", "value": 34.0, "unit": "ms"}, {"measurement": "t2", "setting": "[1]; [7]", "value": 3685, "unit": "ms"}, {"measurement": "τ1 (ms)", "setting": "[1]; […] GABA, 0.1 nM 018, monoexponential fit", "value": "119 [101;167]^a ms"}, {"measurement": "τ2 (ms)", "setting": "[1]; […] GABA, 3 nM 018, biexponential fit", "value": "1090 [960;2180] — ms"}, {"measurement": "τ1 (ms)", "setting": "[1]; […] GABA, 3 nM 018, biexponential fit, n = 7", "value": "147 [115;183] ms"}, {"measurement": "%A1", "setting": "[1]; […] GABA, 3 nM 018, fast component share of total current", "value": "83.8 — %"}, {"measurement": "τ1 (ms)", "setting": "[1]; […] GABA, 3 nM 018, monoexponential fit, n = 3", "value": "123 [73.3;273] ms"}, {"measurement": "%A1", "setting": "[1]; […] GABA, 10 nM 018", "value": 39.6, "unit": "%"}, {"measurement": "τ1 (ms)", "setting": "[1]; [8]", "value": "107 [57.5;180] ms"}, {"measurement": "τ2 (ms)", "setting": "[1]; [8]", "value": "2170 [1970;3010] ms"}, {"measurement": "%A1", "setting": "[1]; […] GABA, 30 nM 018", "value": "8.3 — %"}, {"measurement": "τ1", "setting": "[1]; [9]", "value": 68.0, "unit": "ms"}, {"measurement": "τ1 (ms)", "setting": "[1]; [9]", "value": "68.0 [56.3;106] — ms"}, {"measurement": "τ2 (ms)", "setting": "[1]; [9]", "value": "3780 [3160;4710] ms"}, {"measurement": "τ2 (ms)", "setting": "[1]; […] GABA, 30 nM 018, monoexponential fit, n = 3", "value": "4270 [4140;4920] ms"}, {"measurement": "τ2 (ms)", "setting": "[1]; […] GABA, 1000 nM 018, monoexponential fit", "value": "3780 [3330;5350]^a ms"}, {"measurement": "Papp B→A", "setting": "[3]", "value": 0.79, "unit": "×10⁻⁶ cm/s"}, {"measurement": "recovery", "setting": "[4]", "value": "> 85", "unit": "%"}]}, {"smiles": "CC(=O)Nc1cccc(C(=O)N2CCC3(CCNCC3)CC2)c1", "note": "[compound 2027, N-(3-(3,9-diazaspiro[5.5]undecane-3-carbonyl)phenyl)acetamide]", "values": [{"measurement": "Ki", "setting": "[2]", "value": 560, "unit": "nM"}, {"measurement": "pKi ± SEM", "setting": "[2]", "value": "6.25 ± 0.06"}, {"measurement": "Papp B→A", "setting": "[3]", "value": 0.67, "unit": "×10⁻⁶ cm/s"}, {"measurement": "recovery", "setting": "[4]", "value": "> 85", "unit": "%"}]}]}
